Results on 7 compounds are retold here after patent publication US11149031B2, “Substituted N-(3-fluoropropyl)-pyrrolidine compounds, processes for their preparation and therapeutic uses thereof” (SANOFI, priority 2016, dated 2021).

The target of test [1] is His6-ERα298-554 WT (ERα ligand-binding domain) (Homo sapiens (Human), UniProt P03372). In words: Test A: biochemical antagonist activity, LanthaScreen TR-FRET ERα coactivator assay, WT. Conditions: asterisk (*): protocol using 10 nM estradiol; read-out: Antagonism WT IC50. A digest of the protocol:
(§1)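 IC50 values come from a 4-parameter logistic fit of the 520:495 nm TR-FRET ratio after overnight room-temperature incubation. The mix held 0.5 nM ERα 298–554 LBD, Tb-labelled anti-His6 antibody, 250 nM PGC1a peptide and 3 nM or 10 nM estradiol, pH 7.4 phosphate buffer with DTT.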
In general terms: TR-FRET usually uses a lanthanide donor and a delayed reading to cut background.

The target of test [2] is His6-ERα298-554 D538G mutant (ERα ligand-binding domain) (Homo sapiens (Human), UniProt P03372, D538G). The test can be described thus: Test A: biochemical antagonist activity, LanthaScreen TR-FRET ERα coactivator assay, D538G mutant. Conditions: asterisk (*): protocol using 10 nM estradiol; read-out: Antagonism D538G IC50. Summed up: as §1
Test [3] deals with His6-ERα298-554 Y537S mutant (ERα ligand-binding domain) (Homo sapiens (Human), UniProt P03372, Y537S). The test can be described thus: Test A: biochemical antagonist activity, LanthaScreen TR-FRET ERα coactivator assay, Y537S mutant. Conditions: asterisk (*): protocol using 10 nM estradiol; read-out: Antagonism Y537S IC50. Summed up: as §1
Test [4] deals with MCF7 cells (breast tumor cells) WT. The test can be described thus: Test B: cell proliferation/viability assay (CellTiter-Glo) on MCF7 WT. The test is classed as cell-based. Conditions: Homo sapiens, MCF7, 168 h, 7 days of compound exposure. A digest of the protocol:
(§2)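 Mutant lines are MCF7 transfected with ER mutants and selected for estradiol-independent growth. Cells in phenol red-free MEM with 5% charcoal-stripped FBS received 9-point 1:5 dilutions (3-0.000001 μM) for 7 days; CellTiter-Glo luminescence, % viability relative to untreated after background subtraction.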
A general note: In ATP-based viability assays light output follows the ATP content of the culture.

Test [5] concerns MCF7 cells expressing mutant estrogen receptor Tyr 537 Ser. In words: Test B: cell proliferation/viability assay (CellTiter-Glo) on MCF7 Tyr 537 Ser mutant. Conditions: Homo sapiens, MCF7, 168 h, MCF7 cells expressing ER Tyr 537 Ser mutant, 7 days of compound exposure, read-out: proliferation MCF7 Y537S IC50. The test is classed as cell-based. Summed up:
as §2

Test [6] has as its system MCF7 cells expressing mutant estrogen receptor Asp 538 Gly. The test can be described thus: Test B: cell proliferation/viability assay (CellTiter-Glo) on MCF7 Asp 538 Gly mutant. It is filed as cell-based. Conditions: Homo sapiens, MCF7, 168 h, MCF7 cells expressing ER Asp 538 Gly mutant, 7 days of compound exposure, read-out: proliferation MCF7 D538G IC50. Summed up:
as §2

The target in test [7] is ERα in MCF7 cells (Homo sapiens (Human), UniProt P03372). In words: Test C: estrogen receptor degradation activity, ERα in cell western assay in MCF7 cells. It is filed as cell-based. Conditions: for DC50: 4 hours post compound addition, ERα in cell western, read-out: Degradation IC50; for % Degradation at 3 μM: 4 hours, relative to fulvestrant. Summed up: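 MCF7 cells in phenol-red-free medium with 5% charcoal-stripped FBS received compound (9-point 1:5, 3-0.000018 μM) for 4 h, then were fixed. ERα immunostained (Alexa 488) and normalised to DNA (Syto-64), read as integrated fluorescence on an Acumen scanner.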

Molecules are shown by their SMILES.

His6-ERα298-554 WT (ERα ligand-binding domain), sequence (P03372 298-554): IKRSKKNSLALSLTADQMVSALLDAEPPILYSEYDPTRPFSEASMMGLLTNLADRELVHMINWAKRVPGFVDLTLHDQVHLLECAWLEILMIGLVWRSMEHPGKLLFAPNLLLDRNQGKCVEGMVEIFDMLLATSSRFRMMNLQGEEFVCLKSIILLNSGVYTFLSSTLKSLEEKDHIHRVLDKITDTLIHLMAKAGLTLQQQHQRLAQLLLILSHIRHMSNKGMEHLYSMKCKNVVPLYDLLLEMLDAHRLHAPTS
His6-ERα298-554 Y537S mutant (ERα ligand-binding domain), sequence (P03372 298-554 Y537S): as the sequence (P03372 298-554) above, with Y240S counted along it
ERα in MCF7 cells, sequence (P03372 whole entry): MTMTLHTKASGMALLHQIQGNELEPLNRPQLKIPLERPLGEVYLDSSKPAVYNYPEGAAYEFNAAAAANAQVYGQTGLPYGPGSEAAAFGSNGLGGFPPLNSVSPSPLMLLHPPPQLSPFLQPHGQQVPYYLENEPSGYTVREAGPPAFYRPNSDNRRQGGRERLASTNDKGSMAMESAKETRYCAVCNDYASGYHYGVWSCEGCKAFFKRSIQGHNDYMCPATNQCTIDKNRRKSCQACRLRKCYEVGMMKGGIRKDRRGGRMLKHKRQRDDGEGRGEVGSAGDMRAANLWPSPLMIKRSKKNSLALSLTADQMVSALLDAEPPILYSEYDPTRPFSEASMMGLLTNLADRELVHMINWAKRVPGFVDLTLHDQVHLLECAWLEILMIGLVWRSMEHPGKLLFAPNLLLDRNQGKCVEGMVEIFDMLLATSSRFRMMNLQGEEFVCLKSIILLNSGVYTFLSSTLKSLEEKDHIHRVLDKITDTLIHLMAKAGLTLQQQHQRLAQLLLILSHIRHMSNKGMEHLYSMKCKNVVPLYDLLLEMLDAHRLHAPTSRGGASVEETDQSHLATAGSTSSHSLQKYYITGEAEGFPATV
His6-ERα298-554 D538G mutant (ERα ligand-binding domain), sequence (P03372 298-554 D538G): as the sequence (P03372 298-554) above, with D241G counted along it

`Oc1ccc2c(c1F)CCCC(c1ccc(OC(F)F)c(F)c1)=C2c1ccc(O[C@H]2CCN(CCCF)C2)nc1` [Example 249, 6-[4-(difluoromethoxy)-3-fluoro-phenyl]-1-fluoro-5-[6-[(3S)-1-(3-fluoropropyl)pyrrolidin-3-yl]oxy-3-pyridyl]-8,9-dihydro-7H-benzo[7]annulen-2-ol]: the IC50 in test [1] turned out to be 1 nM; in test [2], 24 nM; in test [3], 14 nM; in test [4] it was 0.3 nM; in test [5] it was 4 nM; in test [6] it was 0.6 nM. The DC50 in test [7] was 0.3 nM. In test [7], the “% Degradation at 3 μM” value came out at 87%.
As for `Cc1cc(C2=C(c3ccc(O[C@H]4CCN(CCCF)C4)nc3)c3ccc(O)c(F)c3CCC2)ccc1Cl` [Example 250, 6-(4-chloro-3-methyl-phenyl)-1-fluoro-5-[6-[(3S)-1-(3-fluoropropyl)pyrrolidin-3-yl]oxy-3-pyridyl]-8,9-dihydro-7H-benzo[7]annulen-2-ol], the IC50 stood at 7 nM in test [1]; 113 nM in test [2]; 70 nM in test [3]; 0.3 nM in test [4]; 4 nM in test [5]; 0.3 nM in test [6]. In test [7], the DC50 was determined as 0.5 nM. Further, the “% Degradation at 3 μM” value in test [7] was 87%.
With `CCOc1ccc(C2=C(c3cnc(O[C@H]4CCN(CCCF)C4)nc3)c3ccc(O)cc3CCC2)c(F)n1` [Example 251, 6-(6-ethoxy-2-fluoro-3-pyridyl)-5-[2-[(3S)-1-(3-fluoropropyl)pyrrolidin-3-yl]oxypyrimidin-5-yl]-8,9-dihydro-7H-benzo[7]annulen-2-ol], the IC50 in test [1] was 4 nM; in test [2], 104 nM; in test [3], 57 nM; in test [4], 0.4 nM; in test [5], 5 nM; in test [6], 0.5 nM. Further, in test [7], the DC50 was 0.5 nM. Further, in test [7], the “% Degradation at 3 μM” value stood at 89%.
On to `CCOc1ccc(C2=C(c3ccc(O[C@H]4CCN(CCCF)C4)nc3)c3ccc(O)c(F)c3CCC2)c(F)n1` [Example 252, 6-(6-ethoxy-2-fluoro-3-pyridyl)-1-fluoro-5-[6-[(3S)-1-(3-fluoropropyl)pyrrolidin-3-yl]oxy-3-pyridyl]-8,9-dihydro-7H-benzo[7]annulen-2-ol], for which the IC50 was determined as 0.7 nM in test [1]; 8 nM in test [2]; 9 nM in test [3]; 0.6 nM in test [4]; 9 nM in test [5]; 0.4 nM in test [6]. Moreover, the DC50 in test [7] was 0.2 nM. The “% Degradation at 3 μM” value in test [7] was 86%.
Regarding `Oc1ccc2c(c1)CCCC(c1ccc(OC(F)(F)F)cc1)=C2c1ccc(O[C@H]2CCN(CCCF)C2)nc1` [Example 253, 5-[6-[(3S)-1-(3-fluoropropyl)pyrrolidin-3-yl]oxy-3-pyridyl]-6-[4-(trifluoromethoxy)phenyl]-8,9-dihydro-7H-benzo[7]annulen-2-ol], the IC50 in test [1] is 7 nM; in test [2] it was 155 nM; in test [3], 95 nM; in test [4] it was 0.1 nM; in test [5], 2 nM; in test [6], 0.1 nM. Moreover, the DC50 in test [7] amounted to 0.2 nM. Besides, in test [7], the “% Degradation at 3 μM” value is reported as 85%.
Consider `CC/C(=C(/c1ccc(O[C@H]2CCN(CCCF)C2)cc1)c1ccc2[nH]ncc2c1)c1ccc(F)cc1Cl` [Example 255, 5-[(E)-2-(2-chloro-4-fluoro-phenyl)-1-[4-[(3S)-1-(3-fluoropropyl)pyrrolidin-3-yl]oxyphenyl]but-1-enyl]-1H-indazole], for which the IC50 in test [1] stood at 15 nM; in test [2], 190 nM; in test [3], 140 nM; in test [4], 0.1 nM; in test [5] it was 6 nM; in test [6] it was 0.9 nM. Besides, the DC50 in test [7] is 0.6 nM. The “% Degradation at 3 μM” value in test [7] came to 92%.
Take `Oc1ccc(C2Sc3cc(O)ccc3OC2c2ccc(O[C@H]3CCN(CCCF)C3)cc2)cc1` (stereo partly drawn) [Example 258, 2-[4-[(3S)-1-(3-fluoropropyl)pyrrolidin-3-yl]oxyphenyl]-3-(4-hydroxyphenyl)-2,3-dihydro-1,4-benzoxathiin-6-ol]: the IC50 in test [1] is 203 nM; in test [2], > 4000 nM; in test [3] it was 2420 nM; in test [4], 6 nM; in test [5] it was 17 nM; in test [6], 1 nM. In addition, the DC50 in test [7] was 5 nM. Also, the “% Degradation at 3 μM” value in test [7] stood at 77%.
